Consider ten substances from article PMC4914250, “Cancer therapeutic approach based on conformational stabilization of mutant p53 protein by small peptides” (Oncotarget, 2016).

The subject of one assay is mutp53. The assay is described as follows: Summary score of peptide functional screens. Conditions: overall score over conformation, DNA binding, viability and PCR screens.
A further assay concerns ES2 ovarian cancer cells. Put plainly: Crystal violet viability assay, ES2. It counts as cell-based, human. Conditions: score 0-6 compared to positive control, 48 h. Here is the method: (§1) Cell extracts were added to ELISA plates coated with the indicated antibodies to allow mutp53 to react with the peptides and antibodies. αp53-HRP Ab was used for assessment of p53 levels. Numbers represent ratio of absorbance between the PAb1620 and PAb240 samples. All reads were normalized to the control […] reading of each extract. MCF7 (WTp53) and H1299-mutp53^A135V (tsp53) cells were used as positive controls for the WTp53 conformation (1620/240 ratio equals or exceeds 5:1). […] 96 well plates were coated with anti-p53 antibody, cell extracts containing p53 were reacted with oligonucleotides that contain a p53RE consensus binding site, labeled with biotin, in the presence or absence (NT) of test peptides. Streptavidin-HRP is used to quantify the amount of oligos in the well. TMB assay was performed to determine bound mutp53 levels (450nm). MCF7 and the H1299-mutp53^A135V(TS) cells serve as positive controls for WTp53. C.and D. - Bar graphs illustrating the effect of various selected peptides on mut-p53 dependent expression on cell viability. […] D, ES2 cells expressing endogenous mutp53 (blue bars) and ES2 cells knocked out for p53 by CRISPR construct (light blue bars). Cell lines were treated with selected peptides, Cis-platinum was used as positive control for cell death. 48 hours after treatment, cells were washed with PBS, and the remaining attached cells were stained with Crystal violet and washed 4 times with PBS. Stained cells were dissolved in 10% acetic acid and plates were taken for optical density measurement at […]. TEXT PRINTED IN THE PICTURE: (A) pCAP1: 0.87 | (A) pCAP2: 0.53 | (A) pCAP3: 0.59 | (A) pCAP4: 0.59 | (A) pCAP5: 0.60 | (A) pCAP6: 0.75 | (A) pCAP23: 1.06 | (A) pCAP24: 1.44 | (A) pCAP36: 1.25 | (A) pCAP47: 1.54 | (A) pCAP54: 1.54 | (A) pCAP60: 2.73 | (A) pCAP68: 2.22 | (A) pCAP83: 1.56 | (A) pCAP97: 2.45 DOUBTS OF THE COPYIST ABOUT THIS PICTURE: Panel A: the numbers over the bars are printed very small, rotated and blurred, so 3, 5, 6, 8 and 9 cannot be told apart with certainty. All values are best readings: pCAP1 0.87, pCAP2 0.53, pCAP3 0.59, pCAP4 0.59, pCAP5 0.60, pCAP6 0.75, pCAP23 1.06, pCAP24 1.44, pCAP36 1.25, pCAP47 1.54, pCAP54 1.54, pCAP60 2.73, pCAP68 2.22, pCAP83 1.56, pCAP97 2.45 / Panel A: the picture prints no measure with the numbers over the bars, so they are given as bare numbers / Panel A: numbers are also printed over the controls, which are not substances and are left out of lines. Best readings: NT 0.60, 60° 30'' 0.48, 60° 1' 0.37, 60° 3' 0.13, 60° 10' 0.05, MCF7 3.32, H1299TS 3.25
(§2) We also performed a similar analysis on ES2 ovarian cancer cells, which express endogenous mp53^S241F, compared to ES2 cells in which p53 was stably knocked out using CRISPR/Cas9 (ES2 p53KO Figure S1F), to control for specificity for mutp53 (Figure 2D). In ES2 cells, too, some of the peptides caused a significant reduction in cell numbers, more prominent in the mutp53 expressing cells than in their p53KO counterparts. […] Overall, we performed this analysis on several different mutp53-expressing human cancer cell lines, and the results are summarized in Table S3. Based on this comprehensive picture, we reduced the number of most promising candidate lead peptides to 30. These peptides were then synthesized with an 8 arginine C-terminal tail for enhanced delivery across cell membranes (pCAPs 130-160); for clarity, peptides are referred to by their original number, with an R for poly arginine (see Table S3).
(§3) Cells were cultured in 96 wells plates with 2500-4000 cells/well. Serial dilutions of different peptides were added and the plates incubated for additional 48 h at 37°C. Then medium was removed and cell viability was determined by staining the cells with crystal violet (0.05%) in methanol/PBS (1:5, v/v), for 10 min, followed by 3 washes with PBS. 10% acetic acid was added to each well for 10 min. OD was determined at 595 nm.

Assay [1] relates to mutp53^R175H. Put plainly: ELISA of mutp53 DNA binding (p53RE oligonucleotide), H1299-p53^R175H cell extract. It counts as biochemical, human. Conditions: score 0-6 compared to positive control; mutp53 DNA binding. As for the experimental part:
as §1
(§4) Next, we assessed the ability of our selected peptides to restore sequence-specific DNA binding to mutp53. To that end we employed an ELISA kit (R&D) in which cell extracts containing p53 are reacted with a biotinylated p53RE oligonucleotide and then incubated in wells coated with anti-p53 antibody, which is expected to trap the p53 protein and its associated p53RE DNA. The amount of p53RE retained in each well via p53 binding is quantified by incubation with streptavidin-HRP. […] Again, extracts of MCF7 and H1299-tsp53^A135V cells served as positive controls for WTp53 DNA binding activity. […] Importantly, there was substantial overlap between the peptides that stabilized the WT conformation (Figure 2A) and those that increased specific DNA binding (Figure 2B), further reinforcing the conclusion that those peptides stabilize mutp53 in a functional state. This was not seen with the randomly selected peptides 1-6 (black bars).
For these experiments, a commercial p53/DNA binding kit of “R&D” (Cat-DYC1355-5 Lot-1273366FA) was used, in accordance with manufacturer guide lines. Briefly, 96 well plates we coated with anti-p53 antibody overnight. Cell extracts containing p53 are reacted with an oligonucleotide that contains a p53 consensus binding site (provided in the kit), labeled with Biotin, in the presence or absence (NT) of test peptides. […]
(In general: In an ELISA, binding on a coated surface is turned into a signal by an enzyme label.)

For a further assay, the system named is EP156. The assay is described as follows: Crystal violet viability assay, EP156. It counts as cell-based. Conditions: score 0-6 compared to positive control, 48 h.
From the text: as §2, §3

Assay [2] concerns mutp53 in SK3 cell extract. Put plainly: ELISA of mutp53 DNA binding (p53RE oligonucleotide), SK3. It counts as biochemical, human. To be noted: score 0-6 compared to positive control. Here is the method:
as §4
For these experiments, a commercial p53/DNA binding kit of “R&D” (Cat-DYC1355-5 Lot-1273366FA) was used, in accordance with manufacturer guide lines. Briefly, 96 well plates we coated with anti-p53 antibody overnight. Cell extracts containing p53 are reacted with an oligonucleotide that contains a p53 consensus binding site (provided in the kit), labeled with Biotin, in the presence or absence (NT) of test peptides. WT p53 is expected to bind this DNA binding site as well as to the antibody coating the test wells of the plate. Excess p53 and oligos were washed away and streptavidin-HRP was used to quantify the amount of oligos in the well, which is proportional to the DNA bound by p53. TMB assay was performed to determine HRP (ES001-1L-K) levels (450nm).

In assay [3] the test system is H1299 cells expressing mutp53^R175H. Put plainly: Crystal violet viability assay, H1299. Conditions: score 0-6 compared to positive control, 48 h. In kind it is cell-based.
Experimental: Cell extracts were added to ELISA plates coated with the indicated antibodies to allow mutp53 to react with the peptides and antibodies. αp53-HRP Ab was used for assessment of p53 levels. Numbers represent ratio of absorbance between the PAb1620 and PAb240 samples. All reads were normalized to the control PAb241 reading of each extract. MCF7 (WTp53) and H1299-mutp53^A135V (tsp53) cells were used as positive controls for the WTp53 conformation (1620/240 ratio equals or exceeds 5:1). […] 96 well plates were coated with anti-p53 antibody, cell extracts containing p53 were reacted with oligonucleotides that contain a p53RE consensus binding site, labeled with biotin, in the presence or absence (NT) of test peptides. Streptavidin-HRP is used to quantify the amount of oligos in the well. TMB assay was performed to determine bound mutp53 levels (450nm). MCF7 and the H1299-mutp53^A135V(TS) cells serve as positive controls for WTp53. C.and D. - Bar graphs illustrating the effect of various selected peptides on mut-p53 dependent expression on cell viability. […] D, ES2 cells expressing endogenous mutp53 (blue bars) and ES2 cells knocked out for p53 by CRISPR construct (light blue bars). Cell lines were treated with selected peptides, Cis-platinum was used as positive control for cell death. 48 hours after treatment, cells were washed with PBS, and the remaining attached cells were stained with Crystal violet and washed 4 times with PBS. Stained cells were dissolved in 10% acetic acid and plates were taken for optical density measurement at 595nM.
This simple assay measures the total number of cells, thus reflecting the combination of both cell death and growth arrest effects. […] After 48 hours of treatment cells were stained with crystal violet and OD at 595nm was determined.
Values on the Y-axis reflect the number of cells in the treated wells, normalized to the non-treated samples (NT; red bars).
Assay [4] has as its system mutp53^R175H. The assay is described as follows: ELISA of mutp53 conformation (PAb1620/PAb240), H1299-p53^R175H cell extract. It counts as biochemical, human. Conditions: score 0-6 compared to positive control; mutp53 conformation.
From the text: (§5) A total of close to 350 peptides, deduced from the phage sequences, were synthesized and subjected to several alternative complementary methods of semi high-throughput functional screening; we refer to these peptides as pCAPs (p53 conformation activating peptides). First, we used cell-free ELISA assays to evaluate the effect of individual peptides on mutp53 conformation and DNA binding in vitro. For conformation analysis (Figure 2A), microtiter plates were coated with PAb240, PAb1620 or PAb421 as control, then the effect of each peptide on reactivity of mutp53 with these antibodies was examined; WTp53 served as a positive control for PAb1620 reactivity.
as §1
Extracts were prepared at a concentration of 750ng/μl and then reacted for 2 hours with different peptides. Plates coated with the different antibodies were then washed and blocked, and extracts pre-incubated either with or without peptides were added for two additional hours. After removal of extracts, plates were washed and incubated with HRP-conjugated anti-p53 antibody. Finally, HRP activity was quantified by optical density at 450nm. MCF7 cells (expressing WTp53) and H1299-tsp53^A135V cells, stably expressing a temperature sensitive p53 mutant that has mutant conformation at 37°C but WT conformation at 32°C [31], were used as positive controls for the WTp53 conformation (1620/240 ratio 5:1). […]

The test system of the next assay is HOP62. The assay is described as follows: Crystal violet viability assay, HOP62. In kind it is cell-based, human. To be noted: score 0-6 compared to positive control, 48 h.
From the text: as §2, §3

Assay [5] relates to mutp53 in BT549 cell extract. The assay is described as follows: ELISA of mutp53 conformation, BT549. Conditions: score 0-6 compared to positive control. It counts as biochemical, human.
From the text: as §5
(§6) 96-well plates were coated using 3 different anti p53 monoclonal antibodies, PAb421, PAb240 and PAb1620. Wells were incubated overnight (ON) with 100μl Ab (5μg/ml) in room temp (RT). The liquid was discarded, and the wells were washed 3 times with PBS, 200 μl. Next, blocking with 5% BSA in PBS for 2 hours (RT) was performed, followed by 3 washes in PBS. Samples of mutant and WT p53 proteins (100 μl, 10 μg/ml), together with control peptides or with test peptides 1-326 (5μg /ml), were incubated for 1.5 hours, and then added to the wells for1 hour at RT. 4 washes with PBST were performed. Next, HRP conjugated αp53 antibody (10μg/ml HAF1355 (R&D)) were added to the wells and incubated at RT for 1 hour. Plates were washed 3 times in PBST and TMB substrate solution (50μl each well, Thermo, (Cat. No. ES001-1L-K)) was added and incubated at 37°C for 20 min. The reaction was stopped with 2M Sulfuric acid (50μl). The absorbance was measured at 450 nm with a spectrophotometer. Protein concentration was determined by dividing the absorb an each sample to by the absorbance of PAb421 samples.

The test system of another assay is SK3. The assay is described as follows: Crystal violet viability assay, SK3. In kind it is cell-based, human. Conditions: score 0-6 compared to positive control, 48 h.
From the text: as §2, §3

The subject of assay [6] is mutp53 in SK3 cell extract. The assay is described as follows: ELISA of mutp53 conformation, SK3. Conditions: score 0-6 compared to positive control. In kind it is biochemical, human.
From the text: as §5, §6

A further assay concerns WI38. Put plainly: Crystal violet viability assay, WI38. It counts as cell-based. To be noted: score 0-6 compared to positive control, 48 h. Here is the method: as §3

Turning to “EHDFEVRGDVVNGRNHQPK [pCAP-4, randomly selected peptide used as inert comparison]”, the SCORE with mutp53 worked out at 2. In addition, the “Viability ES2” value with ES2 ovarian cancer cells is given as 2.
In the case of LPNPPERHH [pCAP-16], the “DNA H1299” value with mutp53^R175H [1] came out at 3. In the assay on mutp53, this substance gave an SCORE of 22. In the assay on EP156, the “Viability EP156” value is listed as 4. Further, in [2], the “DNA SK3” value was 3. In addition, the “Viability H1299” value in assay [3] worked out at 3. Besides, in the assay with mutp53^R175H [4], the “Conform H1299” value amounted to 2. Moreover, in the assay on HOP62, the “Viability HOP62” value is 3.
Consider “LGIDEDEETETAPE [pCAP-6, randomly selected peptide used as inert comparison]”, for which, in the assay with mutp53, the SCORE is reported as 4. Moreover, the “Viability HOP62” value in the assay on HOP62 was 2.
Take “myr-HSSHHHPTVQHRR [pCAP-257, myristoylated peptide, similarity to SIN3A]”: the “DNA H1299” value in the assay with mutp53^R175H [1] is 3. In addition, the SCORE with mutp53 is reported as 16. Also, the “Viability EP156” value in the assay on EP156 came to 4. For the same substance, the “Conform BT549” value in [5] amounted to 3. In addition, the “Viability HOP62” value with HOP62 worked out at 3. In addition, the “Viability SK3” value in the assay with SK3 was determined as 3.
Turning to “LEVIYMI [pCAP-5, randomly selected peptide used as inert comparison]”, in the assay with mutp53, the SCORE came to 2.
The substance “DEDAKFRIRILMRR [pCAP-202, peptide with similarity to APAF1]” showed an SCORE in the assay on mutp53 of 13. Also, in assay [6], the “Conform SK3” value came out at 2. In addition, the “Viability H1299” value in [3] turned out to be 3. In addition, the “Conform BT549” value in assay [5] was found to be 3. For the same substance, in the assay on HOP62, the “Viability HOP62” value was found to be 2. In addition, the “Viability SK3” value in the assay on SK3 is 3.
In the assay on mutp53, “VWVHDSCHANLQNYRNYLP [pCAP-2, randomly selected peptide used as inert comparison]” returned an SCORE of 2.
In the assay with mutp53, “FWTQSIKERKMLNEHDFER [pCAP-3, randomly selected peptide used as inert comparison]” showed an SCORE of 4. The “Viability H1299” value in assay [3] was 1. For the same substance, in the assay with HOP62, the “Viability HOP62” value is 2.
Turning to “SPLQTPAAPGAAAGPALSPV [pCAP-7, synthesized peptide of the functional screen]”, in the assay on mutp53^R175H [1], the “DNA H1299” value is on record as 1. This substance showed an SCORE in the assay on mutp53 of 3. Moreover, the “Viability WI38” value in the assay on WI38 is given as 2.
As to FPGHTIH [pCAP-100], in the assay with mutp53^R175H [1], the “DNA H1299” value is 3. Moreover, the SCORE in the assay with mutp53 is on record as 19. Further, the “DNA SK3” value in assay [2] worked out at 3. For the same substance, the “Conform SK3” value in assay [6] is recorded as 3. Moreover, the “Viability H1299” value in [3] came out at 3. In [5], the “Conform BT549” value is reported as 1.
